# Test results reported in US8143243B2, “Compounds for the treatment of hepatitis C” (Bristol-Myers Squibb Company, priority 2007, dated 2012).
# Biological target: T1, HCV NS5B (Hepatitis C virus genotype 1b, UniProt Q9WMX2)
# T1 construct: The protein was expressed with an 18 amino acid C-terminal truncation to enhance the solubility; made in house; host or cells: E. coli BL21 (DE3)
# Test: HCV NS5B RdRp enzyme assay (standard / modified)
# Format: biochemical
# Details: not given
# Method: HCV NS5B RdRp cloning, expression, and purification. The cDNA encoding the NS5B protein of HCV, genotype 1b, was cloned into the pET21a expression vector. The protein was expressed with an 18 amino acid C-terminal truncation to enhance the solubility. The E. coli competent cell line BL21 (DE3) was used for expression of the protein. Cultures were grown at 37° C. for ˜4 hours until the cultures reached an optical density of 2.0 at 600 nm. The cultures were cooled to 20° C. and induced with 1 mM IPTG. Fresh ampicillin was added to a final concentration of 50 μg/ml and the cells were grown overnight at 20° C.
# Cell pellets (3 L) were lysed for purification to yield 15-24 mgs of purified NS5B. The lysis buffer consisted of 20 mM Tris-HCl, pH 7.4, 500 mM NaCl, 0.5% triton X-100, 1 mM DTT, 1 mM EDTA, 20% glycerol, 0.5 mg/ml lysozyme, 10 mM MgCl2, 15 ug/ml deoxyribonuclease I, and Complete TM protease inhibitor tablets (Roche). After addition of the lysis buffer, frozen cell pellets were resuspended using a tissue homogenizer. To reduce the viscosity of the sample, aliquots of the lysate were sonicated on ice using a microtip attached to a Branson sonicator. The sonicated lysate was centrifuged at 100,000×g for 1 hr at 4° C. and filtered through a 0.2 μm filter unit (Corning).
# The protein was purified using three sequential chromatography steps: Heparin sepharose CL-6B, polyU sepharose 4B, and Hitrap SP sepharose (Pharmacia). The chromatography buffers were identical to the lysis buffer but contained no lysozyme, deoxyribonuclease I, MgCl2 or protease inhibitor and the NaCl concentration of the buffer was adjusted according to the requirements for charging the protein onto the column. Each column was eluted with a NaCl gradient which varied in length from 5-50 column volumes depending on the column type. After the final chromatography step, the resulting purity of the enzyme is >90% based on SDS-PAGE analysis. The enzyme was aliquoted and stored at −80° C.
# Standard HCV NS5B RdRp enzyme assay. HCV RdRp genotype 1b assays were run in a final volume of 60 μl in 96 well plates (Costar 3912). The assay buffer is composed of 20 mM Hepes, pH 7.5, 2.5 mM KCl, 2.5 mM MgCl2, 1 mM DTT, 1.6 U RNAse inhibitor (Promega N2515), 0.1 mg/ml BSA (Promega R3961), and 2% glycerol. All compounds were serially diluted (3-fold) in DMSO and diluted further in water such that the final concentration of DMSO in the assay was 2%. HCV RdRp genotype 1b enzyme was used at a final concentration of 28 nM. A polyA template was used at 6 nM, and a biotinylated oligo-dT12 primer was used at 180 nM final concentration. Template was obtained commercially (Amersham 27-4110). Biotinylated primer was prepared by Sigma Genosys. 3H-UTP was used at 0.6 μCi (0.29 μM total UTP). Reactions were initiated by the addition of enzyme, incubated at 30° C. for 60 min, and stopped by adding 25 μl of 50 mM EDTA containing SPA beads (4 μg/μl, Amersham RPNQ 0007). Plates were read on a Packard Top Count NXT after >1 hr incubation at room temperature.
# Modified HCV NS5B RdRp enzyme assay. A modified enzyme assay was performed essentially as described for the standard enzyme assay except for the following: The biotinylated oligo dT12 primer was precaptured on streptavidin-coated SPA beads by mixing primer and beads in assay buffer and incubating at room temperature for one hour. Unbound primer was removed after centrifugation. The primer-bound beads were resuspended in 20 mM Hepes buffer, pH 7.5 and used in the assay at final concentrations of 20 nM primer and 0.67 μg/μl beads. Order of addition in the assay: enzyme (14 nM) was added to diluted compound followed by the addition of a mixture of template (0.2 nM), 3H-UTP (0.6 μCi, 0.29 μM), and primer-bound beads, to initiate the reaction; concentrations given are final. Reactions were allowed to proceed for 4 hours at 30° C.
# IC50 values for compounds were determined using seven different [I]. […]
# T1 sequence (Q9WMX2 2420-2992): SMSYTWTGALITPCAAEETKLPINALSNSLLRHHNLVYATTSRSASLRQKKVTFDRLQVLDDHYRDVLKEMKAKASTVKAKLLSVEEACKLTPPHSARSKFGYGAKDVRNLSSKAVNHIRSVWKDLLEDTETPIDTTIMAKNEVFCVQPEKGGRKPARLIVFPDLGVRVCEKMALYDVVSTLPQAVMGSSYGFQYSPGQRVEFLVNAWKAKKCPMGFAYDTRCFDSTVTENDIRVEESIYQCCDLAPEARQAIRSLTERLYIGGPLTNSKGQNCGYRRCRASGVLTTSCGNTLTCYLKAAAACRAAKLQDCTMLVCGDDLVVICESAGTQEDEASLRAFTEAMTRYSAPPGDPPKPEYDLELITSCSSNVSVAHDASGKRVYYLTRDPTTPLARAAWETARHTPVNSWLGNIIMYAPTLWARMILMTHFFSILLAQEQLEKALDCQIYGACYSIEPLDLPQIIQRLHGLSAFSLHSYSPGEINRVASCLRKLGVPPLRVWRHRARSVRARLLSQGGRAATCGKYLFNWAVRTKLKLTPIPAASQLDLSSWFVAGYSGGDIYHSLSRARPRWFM
row,SMILES,IC50
1,COc1ccc2c(c1)C=C(c1c(C(=O)N3[C@H]4CC[C@@H]3CC4)cnn1C)Cn1c-2c(C2CCCCC2)c2ccc(C(=O)NS(=O)(=O)C(C)C)cc21,1 to 500 nM

# Same assay, conditions: HCV RdRp genotype 1b enzyme; read-out: IC50
row,IC50,SMILES
1,1 to 500 nM,COc1ccc2c(c1)C=C(c1c(C(=O)O)cnn1C)Cn1c-2c(C2CCCCC2)c2ccc(C(=O)NS(=O)(=O)C(C)C)cc21
2,1 to 500 nM,CCOC(=O)c1cnn(C)c1C1=Cc2cc(OC)ccc2-c2c(C3CCCCC3)c3ccc(C(=O)NS(=O)(=O)CC(C)C)cc3n2C1
3,1 to 500 nM,COc1ccc2c(c1)C=C(c1c(C(=O)N(Cc3ccccc3OC)C(C)C)cnn1C)Cn1c-2c(C2CCCCC2)c2ccc(C(=O)NS(=O)(=O)C(C)C)cc21
4,1 to 500 nM,CCc1nnc(CN(C(=O)c2cnn(C)c2C2=Cc3cc(OC)ccc3-c3c(C4CCCCC4)c4ccc(C(=O)NS(=O)(=O)C(C)C)cc4n3C2)C(C)C)o1
5,1 to 500 nM,CCOC(=O)c1cnn(C)c1C1=Cc2cc(OC)ccc2-c2c(C3CCCCC3)c3ccc(C(=O)NS(=O)(=O)C4CCC4)cc3n2C1
6,1 to 500 nM,COc1ccc2c(c1)C=C(c1c(C(=O)N3C[C@@H](C)O[C@@H](C)C3)cnn1C)Cn1c-2c(C2CCCCC2)c2ccc(C(=O)NS(=O)(=O)C3CCCC3)cc21
7,1 to 500 nM,COc1ccc2c(c1)C=C(c1c(C(=O)N3CCCC(N(C)C)C3)cnn1C)Cn1c-2c(C2CCCCC2)c2ccc(C(=O)NS(=O)(=O)C3CCCC3)cc21 (stereo not drawn)
8,1 to 500 nM,CCN1C[C@@H]2C[C@H]1CN2C(=O)c1cnn(C)c1C1=Cc2cc(OC)ccc2-c2c(C3CCCCC3)c3ccc(C(=O)NS(=O)(=O)C4CCCC4)cc3n2C1
9,1 to 500 nM,COc1ccc2c(c1)C=C(c1c(C(=O)N3CCN4CCCC4C3)cnn1C)Cn1c-2c(C2CCCCC2)c2ccc(C(=O)NS(=O)(=O)C3CCCC3)cc21 (stereo not drawn)
10,1 to 500 nM,CCN(C(=O)c1cnn(C)c1C1=Cc2cc(OC)ccc2-c2c(C3CCCCC3)c3ccc(C(=O)NS(=O)(=O)C4CCCC4)cc3n2C1)C(C)C
11,1 to 500 nM,CCC(C)S(=O)(=O)NC(=O)c1ccc2c(C3CCCCC3)c3n(c2c1)CC(c1c(C(=O)N2C[C@@H]4C[C@H]2CN4CC)cnn1C)=Cc1cc(OC)ccc1-3 (stereo partly drawn)
12,1 to 500 nM,CCC(C)S(=O)(=O)NC(=O)c1ccc2c(C3CCCCC3)c3n(c2c1)CC(c1c(C(=O)N2CCN4CCCC4C2)cnn1C)=Cc1cc(OC)ccc1-3 (stereo not drawn)
13,1 to 500 nM,CCOC(=O)c1cnn(C)c1C1=Cc2cc(OC)ccc2-c2c(C3CCCCC3)c3ccc(C(=O)NS(=O)(=O)C(C)CC)cc3n2C1 (stereo not drawn)
14,1 to 500 nM,COc1ccc2c(c1)C=C(c1c(C(=O)O)cnn1C)Cn1c-2c(C2CCCCC2)c2ccc(C(=O)NS(=O)(=O)C3CCC3)cc21
15,1 to 500 nM,COc1ccc2c(c1)C=C(c1c(C(=O)N3C[C@@H](C)N(C)[C@@H](C)C3)cnn1C)Cn1c-2c(C2CCCCC2)c2ccc(C(=O)NS(=O)(=O)C3CCCC3)cc21
16,1 to 500 nM,COc1ccc2c(c1)C=C(c1c(C(=O)N3CCN4CCCC4C3)cnn1C)Cn1c-2c(C2CCCCC2)c2ccc(C(=O)NS(=O)(=O)CC(C)C)cc21 (stereo not drawn)
17,1 to 500 nM,COc1ccc2c(c1)C=C(c1c(C(=O)N3C[C@@H](C)N(C)[C@@H](C)C3)cnn1C)Cn1c-2c(C2CCCCC2)c2ccc(C(=O)NS(=O)(=O)CC(C)C)cc21
18,1 to 500 nM,CCN1CC2CC1CN2C(=O)c1cnn(C)c1C1=Cc2cc(OC)ccc2-c2c(C3CCCCC3)c3ccc(C(=O)NS(=O)(=O)CC(C)C)cc3n2C1 (stereo not drawn)
19,1 to 500 nM,COc1ccc2c(c1)C=C(c1c(C(=O)N3CCCC(N(C)C)C3)cnn1C)Cn1c-2c(C2CCCCC2)c2ccc(C(=O)NS(=O)(=O)CC(C)C)cc21 (stereo not drawn)
20,1 to 500 nM,COc1ccc2c(c1)C=C(c1c(C(=O)N3C[C@@H](C)N(C)[C@@H](C)C3)cnn1C)Cn1c-2c(C2CCCCC2)c2ccc(C(=O)NS(=O)(=O)C3CCC3)cc21
21,1 to 500 nM,COc1ccc2c(c1)C=C(c1c(C(=O)N3C[C@@H](C)O[C@@H](C)C3)cnn1C)Cn1c-2c(C2CCCCC2)c2ccc(C(=O)NS(=O)(=O)C3CCC3)cc21
22,1 to 500 nM,COC(=O)c1c(C)nn(C)c1C1=Cc2cc(OC)ccc2-c2c(C3CCCCC3)c3ccc(C(=O)NS(=O)(=O)N(C)C)cc3n2C1
23,1 to 500 nM,COC(=O)c1c(C)nn(C)c1C1=Cc2cc(OC)ccc2-c2c(C3CCCCC3)c3ccc(C(=O)NS(=O)(=O)CC(C)C)cc3n2C1
24,1 to 500 nM,CCn1nc(C)c(C(=O)N2C[C@@H](C)N(C)[C@@H](C)C2)c1C1=Cc2cc(OC)ccc2-c2c(C3CCCCC3)c3ccc(C(=O)NS(=O)(=O)C(C)C)cc3n2C1
25,1 to 500 nM,CCn1nc(C)c(C(=O)N2CCO[C@H](COC)C2)c1C1=Cc2cc(OC)ccc2-c2c(C3CCCCC3)c3ccc(C(=O)NS(=O)(=O)C(C)C)cc3n2C1
26,1 to 500 nM,COc1ccc2c(c1)C=C(c1nn(C(C)C)c(C)c1C(=O)N1C[C@@H](C)O[C@@H](C)C1)Cn1c-2c(C2CCCCC2)c2ccc(C(=O)NS(=O)(=O)C(C)C)cc21 [drawing 617]
27,1 to 500 nM,COc1ccc2c(c1)C=C(c1nn(C(C)C)c(C)c1C(=O)N1C[C@@H](C)O[C@@H](C)C1)Cn1c-2c(C2CCCCC2)c2ccc(C(=O)NS(=O)(=O)C(C)C)cc21 [drawing 622]

row,SMILES,IC50
1,COc1ccc2c(c1)C=C(c1c(C(=O)N3CC4CCC(C3)O4)c(C)nn1C(C)C)Cn1c-2c(C2CCCCC2)c2ccc(C(=O)NS(=O)(=O)C(C)C)cc21,1 to 500 nM
2,CCn1ncc(C(=O)N2CC3CCC(C2)O3)c1C1=Cc2cc(OC)ccc2-c2c(C3CCCCC3)c3ccc(C(=O)NS(=O)(=O)C(C)C)cc3n2C1,1 to 500 nM
